Assay results reported in paper PMC8591608, “DNDI-6148: A Novel Benzoxaborole Preclinical Candidate for the Treatment of Visceral Leishmaniasis” (Journal of Medicinal Chemistry, 2021).
In brackets after ≈: the same amount, converted by molar mass. Where two headings read alike, the source gives them in different places.

Tests used:
[1] = Thermodynamic solubility; assay type: physicochemical
Description: The thermodynamic solubility was measured by WuXi AppTec, China. Aliquots of the compound DMSO stock (10 mM) were transferred to fasted state simulated intestinal fluid (FaSSIF) buffer (pH 6.5) or fed state simulated intestinal fluid (FeSSIF) buffer (pH 5.0), and the mixtures were shaken for 24 h at room temperature. Following sampling by a Whatman filter device, the compound concentrations were determined by UV spectroscopy.

[2] = Liver microsome stability, dog; assay type: in vitro ADME; conditions: Beagle, dog liver microsomes, pH 7.4
Description: (§1) Tests were performed by WuXi AppTec, China. Test compounds (at 1 μM) or positive controls (testosterone, propafenone, and diclofenac) were incubated at 37 °C with liver microsomes from Balb/c mouse, golden (Syrian) hamster, Sprague-Dawley rat, Beagle dog, or human in the presence of a NADPH regenerating system and phosphate buffer (100 mM, pH 7.4) at 0.4 or 0.8 mg/mL microsomal protein. The samples were removed at time intervals from 0 to 60, 90, or 120 min and immediately mixed with cold methanol supplemented or not with acid (3% formic acid) and centrifuged prior to analysis by LC-MS/MS using tolbutamide or propranolol as internal standards.

[3] = target: CYP2D6 (Homo sapiens, UniProt P10635); test: CYP inhibition, CYP2D6; assay type: in vitro ADME; conditions: human liver microsomes
Description: The study was conducted by WuXi AppTec, Co., China, using the time-dependent (TDI) method. […] Following incubation with substrates (phenacetin for 1A2, diclofenac for 2C9, S-(+) mephenytoin for 2C19, dextromethorphan for 2D6, and midazolam or testosterone for 3A4), reactions were stopped by adding ice-cold acetonitrile, the samples were analyzed for the formation of metabolites by LC-MS/MS, and the percentage of inhibition was determined.

[4] = Liver microsome stability, mouse; assay type: in vitro ADME; conditions: Balb/c, mouse liver microsomes, pH 7.4
Description: as §1

[5] = Hepatocyte stability, dog; assay type: in vitro ADME; conditions: Beagle, cryopreserved dog hepatocytes
Description: (§2) Tests were performed by WuXi AppTec, China. Following a viability check of cryopreserved hepatocytes from Sprague-Dawley rat, Beagle dog, or human, test compounds (at 1 μM) or positive controls 7-ethoxycoumarin and 7-hydroxycoumarin (at 3 μM) were incubated at 37 °C, 5% CO2 with hepatocytes in Williams’ Medium E. Following incubation of 15, 30, 60, 90, 120, 180, and 240 min, reactions were stopped by the addition of acetonitrile, the samples were centrifuged, and LC-MS/MS analysis was conducted using tolbutamide as an internal standard.

[6] = In vivo pharmacokinetics in rat; design: species or system male Sprague-Dawley rats; conditions: for MRT inf: read-out: MRT0-inf; for MRT last: read-out: MRT0-last
Description: DNDI-6148 was formulated in 2% ethanol, 1 mol equiv NaOH, dextrose (5% solution), and administrated to male Sprague-Dawley rats, either i.v. after filtration and pH adjustment (at 2 mg/kg), or p.o. as a homogenous suspension (at 10 mg/kg). The K2-EDTA anticoagulant was added to blood samples collected at predose, 0.083 (i.v. only), 0.25, 0.5, 1, 2 (p.o. only), 4, 8, and 24 h, and were processed to plasma and stabilized with phosphoric acid (1% final) before analysis by LC-MS/MS. PK parameters were calculated using WinNonlin software (version 6.21 and 6.3).

[7] = Hepatocyte stability, human; assay type: in vitro ADME; conditions: cryopreserved hepatocytes
Description: as §2

[8] = Plasma-protein binding, human; assay type: in vitro ADME; conditions: pH 7.4
Description: (§3) Tests were conducted by WuXi AppTec, Co., China, using the equilibrium dialysis method and a 96-well plate format. The test compound (at 2 μM, in triplicate) in solution in plasma (Balb/c mouse, golden (Syrian) hamster, Sprague-Dawley rat, Beagle dog or human) was dialyzed against 100 mM phosphate-buffered saline (pH 7.4) on a rotating plate incubated for 6 h at 37 °C. Following the precipitation of protein with acetonitrile or acetonitrile/methanol containing both 1% phosphoric acid, the amount of compound present in each compartment was quantified by LC-MS/MS.

[9] = Plasma-protein binding, dog; assay type: in vitro ADME; conditions: Beagle, pH 7.4
Description: as §3

[10] = male, Sprague-Dawley, plasma, iv, rat, i.v. 2 mg/kg
[11] = male, Sprague-Dawley, rat, plasma, IV 2.32 mg/kg, mean of R1-R3
[12] = male, Sprague-Dawley, rat, plasma, PO 10.4 mg/kg, mean of R4-R6

Sequence of CYP2D6 (P10635 whole entry): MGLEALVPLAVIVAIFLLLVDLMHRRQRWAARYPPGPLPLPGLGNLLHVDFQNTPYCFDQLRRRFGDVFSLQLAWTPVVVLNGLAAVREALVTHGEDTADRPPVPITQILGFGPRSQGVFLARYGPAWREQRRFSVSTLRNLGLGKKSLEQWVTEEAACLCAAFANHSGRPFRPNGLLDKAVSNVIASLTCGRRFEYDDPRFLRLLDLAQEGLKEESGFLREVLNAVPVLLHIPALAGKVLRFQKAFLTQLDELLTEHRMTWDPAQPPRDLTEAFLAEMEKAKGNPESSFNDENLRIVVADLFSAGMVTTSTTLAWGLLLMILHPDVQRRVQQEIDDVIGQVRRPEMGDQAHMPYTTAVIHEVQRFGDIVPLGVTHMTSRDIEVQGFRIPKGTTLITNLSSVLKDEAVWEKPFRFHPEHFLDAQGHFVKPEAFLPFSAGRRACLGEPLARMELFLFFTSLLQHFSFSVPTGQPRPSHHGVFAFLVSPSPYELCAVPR

Work on Cc1c(C(=O)Nc2ccc3c(c2)B(O)OC3)nnn1-c1ccccn1 [Compound 23, N-(1-Hydroxy-1,3-dihydrobenzo[c][1,2]oxaborol-6-yl)-5-methyl-1-(pyridin-2-yl)-1H-1,2,3-triazole-4-carboxamide] yielded a solubility at 24 h ([1]; FaSSIF buffer pH 6.5, read-out: FaSSIF solubility) of 5.4 µg/mL (≈ 16.1 µM), a solubility at 24 h ([1]; FeSSIF buffer pH 5.0, read-out: FeSSIF solubility) of 6.3 µg/mL (≈ 18.8 µM) and a microsomal CLint at 1 μM [2] of 5.8 µL/min/mg. The IC50 [3] was greater than 50 µM, the microsomal CLint at 1 μM [4] was less than 11.9 µL/min/mg and the hepatocyte CLint at 1 μM [5] was 2.4 µL/min/1e6 cells. The Plasma concentration ([6]; IV 2.32 mg/kg, plasma, 5 min, mean of R1-R3) was 4727, the Plasma concentration ([6]; IV 2.32 mg/kg, plasma, 0.25 h, mean of R1-R3) was 4093 and the Plasma concentration ([6]; IV 2.32 mg/kg, plasma, 0.50 h, mean of R1-R3) was 3627. For the same compound, the Plasma concentration ([6]; IV 2.32 mg/kg, plasma, 1.00 h, mean of R1-R3) was 2767, the Plasma concentration ([6]; IV 2.32 mg/kg, plasma, 4.00 h, mean of R1-R3) was 537 and the Plasma concentration ([6]; IV 2.32 mg/kg, plasma, 8.00 h, mean of R1-R3) was 84.9. For the same compound, the Plasma concentration ([6]; IV 2.32 mg/kg, plasma, 24.0 h, mean of R1-R3) was 5.67, the AUC0-inf/AUC0-last ([6]; IV 2.32 mg/kg, mean of R1-R3) was 100% and the Tlast ([6]; IV 2.32 mg/kg, mean of R1-R3) was 24.0 h. For the same compound, the Plasma concentration ([6]; PO 10.4 mg/kg, plasma, 0.25 h, mean of R4-R6) was 4287, the Plasma concentration ([6]; PO 10.4 mg/kg, plasma, 0.50 h, mean of R4-R6) was 3993 and the Plasma concentration ([6]; PO 10.4 mg/kg, plasma, 1.00 h, mean of R4-R6) was 5153. For the same compound, the Plasma concentration ([6]; PO 10.4 mg/kg, plasma, 2.00 h, mean of R4-R6) was 6900, the Plasma concentration ([6]; PO 10.4 mg/kg, plasma, 4.00 h, mean of R4-R6) was 5773 and the Plasma concentration ([6]; PO 10.4 mg/kg, plasma, 8.00 h, mean of R4-R6) was 1249. It also gave a Plasma concentration ([6]; PO 10.4 mg/kg, plasma, 24.0 h, mean of R4-R6) of 13.8, an AUC0-inf/AUC0-last ([6]; PO 10.4 mg/kg, mean of R4-R6) of 100% and a Tlast ([6]; PO 10.4 mg/kg, mean of R4-R6) of 24.0 h. For the same compound, the Vd at 24 h [6, 10] was 0.6 L/kg, the half-life at 24 h [6, 10] was 2.8 h and the clearance ([6]; male, Sprague-Dawley, plasma, iv, rat, i.v. 2 mg/kg, read-out: clearance) was 4.5 mL/min/kg. For the same compound, the bioavailability ([6]; male, Sprague-Dawley, plasma, po, rat, p.o. 10 mg/kg, read-out: F) was 94%, the AUC(0-inf) [6, 11] was 9160 ng·h/mL and the AUC(0-t) [6, 11] was 9140 ng·h/mL. The C0 [6, 11] was 5100 ng/mL, the half-life [6, 11] was 2.75 h and the clearance ([6]; male, Sprague-Dawley, rat, plasma, IV 2.32 mg/kg, mean of R1-R3, read-out: Cl) was 4.5 mL/min/kg. For the same compound, the MRT inf [6, 11] was 2.29 h, the MRT last [6, 11] was 2.21 h and the Vd ([6]; male, Sprague-Dawley, rat, plasma, IV 2.32 mg/kg, mean of R1-R3, read-out: Vdss) was 0.603 L/kg. For the same compound, the bioavailability ([6]; male, Sprague-Dawley, rat, plasma, PO 10.4 mg/kg vs IV 2.32 mg/kg, mean, read-out: Bioavailability) was 94%, the AUC(0-inf) [6, 12] was 38600 ng·h/mL and the AUC(0-t) [6, 12] was 38500 ng·h/mL. It also gave a Cmax [6, 12] of 7330 ng/mL, a Tmax [6, 12] of 2.67 h and a half-life [6, 12] of 2.34 h. For the same compound, the MRT inf [6, 12] was 4.18 h, the MRT last [6, 12] was 4.15 h and the hepatocyte CLint at 1 μM [7] was 0.5 µL/min/1e6 cells. The fraction unbound at 6 h, 2 µM [8] was 0.08 and the fraction unbound at 6 h, 2 µM [9] was 0.13.
